Test results: PubChem BioAssay AID1996
≈ marks a conversion by molar mass, not a printed value.

details: buffer; pH 7.4; 200.0 µM

| solubility kinetic [µg/mL] | Structure (SMILES) |
| --- | --- |
| > 45.4 | COCCSc1ccccc1C(=O)NCc1cccnc1 |
| 31.8 (≈ 102 µM) | O=C(CN1CCCC1)Nc1c(C(=O)C2CC2)oc2ccccc12 |
| < 0.3 | COc1ccc2cc(C(=O)N(C)Cc3ccccc3)[nH]c2c1 |
| > 41.3 | COc1ccc(N2C(=O)CC(C3CCCO3)C2=O)cc1 (stereo not drawn) |
| > 43.1 | COC(=O)c1c(C)oc(C)c1S(=O)(=O)NCC1CC1 |
| > 49 | COc1cccc(C(=O)N(C)C(C)c2nc3ccccc3s2)c1 (stereo not drawn) |
| > 50.2 | CCOC(=O)Cc1csc(NC(=O)COc2ccc(C)cc2)n1 |
| 20.5 (≈ 71.8 µM) | CC(=O)c1c(C)cc(C)c(CSc2ccccn2)c1C |
| > 48.2 | CN(C)C(=O)CSc1nnc(Cc2ccc3c(c2)OCO3)o1 |
| > 49.4 | O=C(COC(=O)c1cccc(O)c1)NCc1ccc2c(c1)OCO2 |
| 45.9 (≈ 138 µM) | COc1cccc(NC(=O)N2CCCC2C(=O)NC2CCCC2)c1 (stereo not drawn) |
| 38.8 (≈ 119 µM) | CC(=O)c1ccc(OCCCC(=O)NCCc2ccccc2)cc1 |
| 51.1 (≈ 146 µM) | CCCC1C2C(=O)N(c3cccc(C)c3)C(=O)C2ON1c1ccccc1 (stereo not drawn) |
| > 40.4 | CCc1ccc(Nc2nc(C)cc(C)c2C(N)=O)cc1 |
| 37.6 | CCc1nc2ccccc2n1CCc1ccccc1.Cl |
| 9.9 (≈ 26.2 µM) | O=C(CN1C(=O)NC2(CCCCCCC2)C1=O)NCc1ccc(Cl)cc1 |
| > 42.3 | Cc1nc([N+](=O)[O-])cn1CC(O)c1ccc(Cl)cc1 (stereo not drawn) |
| > 47.5 | CC(CCc1ccccc1)NC(=O)CNC(=O)c1cccs1 (stereo not drawn) |
| > 37.1 | CC1CCCCC1Nc1ncnc2sccc12 (stereo not drawn) |
| 49.6 (≈ 147 µM) | N/C(=N\OC(=O)CCN1C(=O)c2ccccc2C1=O)c1ccccn1 |
| 42.6 (≈ 140 µM) | O=C1CSC(c2cccnc2)N1Cc1ccc(Cl)cc1 (stereo not drawn) |
| 3.4 (≈ 10.5 µM) | CCc1ccccc1NC(=O)C1CCCN(c2nccc(C)n2)C1 (stereo not drawn) |
| 34.1 (≈ 123 µM) | CC(C)(C)c1ccc(C(=O)n2cnc3ccccc32)cc1 |
| > 42.2 | COc1ccc(CSCC(=O)NCCC(C)C)cc1 |

| solubility kinetic [µg/mL] | Structure (SMILES) |
| --- | --- |
| 11.1 (≈ 31 µM) | CC(Oc1ccccc1)C(=O)N1CCN=C1SCc1cccc(F)c1 (stereo not drawn) |
| > 42 | CCN(CC)C1=C(Cl)C(=O)C(Cl)C12OCCO2 (stereo not drawn) |
| 17.8 (≈ 52.2 µM) | Cc1ccc(/C=C/C(=O)OCC(=O)c2ccc3c(c2)NC(=O)CO3)o1 |
| > 39.6 | CCOc1ccccc1C1NC(=O)CCC1[N+](=O)[O-] (stereo not drawn) |
| 3.4 (≈ 11.3 µM) | COC(=O)Nc1ccc(SCC(=O)c2ccccc2)cc1 |
| 46.2 (≈ 135 µM) | CCOc1ccccc1-c1noc(CCC(=O)NC2CCCCC2)n1 |
| 4.6 (≈ 17.6 µM) | CCNc1nc(=S)nc(NCc2ccccc2)[nH]1 |
| > 38.3 | COc1cccc(C2(O)C(=O)Nc3ccccc32)c1 (stereo not drawn) |
| 5 (≈ 17.5 µM) | COc1ccc(/C=C/C(=O)OCC(=O)c2ccc[nH]2)cc1 |
| > 36.8 | CCOc1ccc(CNC(=O)c2ccco2)cc1 |
| 13.2 (≈ 38.8 µM) | O=C(COC(=O)CC1CC2CCC1C2)Nc1ccc(F)cc1Cl (stereo not drawn) |
| > 44.5 | CCC(C)N1CCN(S(=O)(=O)Cc2ccccc2)CC1 (stereo not drawn) |
| > 43.7 | CCc1ccc(OCC(=O)OC(C)C(=O)NC2CC2)cc1 (stereo not drawn) |
| > 49.3 | Cc1ccc(C(=O)N2CCN(C34CC5CC(CC(C5)C3)C4)CC2)o1 |
| 2.3 (≈ 6.82 µM) | Cc1cccc(-c2noc(CNC(=O)c3ccc4c(c3)OCO4)n2)c1 |
| 8.7 (≈ 28 µM) | O=C(NCCc1nc2ccccc2[nH]1)c1ccc([N+](=O)[O-])cc1 |
| > 56.9 | Cc1ccc(C(=O)COC(=O)CCNS(=O)(=O)c2ccccc2F)cc1 |
| 17.6 (≈ 63.4 µM) | O=C(Nc1ccncc1)c1ccc([N+](=O)[O-])cc1Cl |
| 5.8 (≈ 16.8 µM) | Cc1ccc(NS(=O)(=O)c2cccc(C(=O)NC3CC3)c2)c(C)c1 |
| > 60.4 | CCC1(c2ccc(Cl)cc2)NC(=O)N(CC(=O)NC2(C#N)CCCCC2)C1=O (stereo not drawn) |
| 31 (≈ 125 µM) | O=c1nc2n(c3cccc(Cl)c13)CCCCC2 |
| 36.2 (≈ 143 µM) | CN(C)c1nc(C(=O)O)nc(N2CCOCC2)n1 |
| > 35 | OCC1(CO)COC(/C=C/c2ccccc2)=N1 |
| 28 (≈ 109 µM) | O=[N+]([O-])c1ccc(Cl)cc1NCC1CCCO1 (stereo not drawn) |
